The text below walks through data of US10189845B2, “4,6-substituted-pyrazolo[1,5-a]pyrazines as janus kinase inhibitors” (ARRAY BIOPHARMA INC., priority 2014, dated 2019).

Like-named read-outs stand apart in the source and are kept apart here.

Common to all, as to assay type: biochemical
The target in one experiment is JAK3 (Homo sapiens (Human), UniProt P52333). Put plainly: JAK3 Inhibition Assay (Example D, Omnia kinase fluorescence peptide substrate assay). The essentials:
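Omnia Sox-peptide kinetic read (ex 360 nm, em 485 nm, every 50 s over 45 min) tracked phosphorylation of 10 μM Y7 peptide by 2 nM recombinant JAK3 at 1 mM ATP. Buffer: 25 mM HEPES pH 7.4, 10 mM MgCl2, 0.01% Triton X-100, 1 mM DTT, with 2% DMSO final.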

For another experiment, the target named is Human Tyk2 kinase domain (Homo sapiens (Human), UniProt P29597). Put plainly: Tyk2 Inhibition Assay (Example A, Omnia kinase fluorescence peptide substrate assay). The conditions noted are these: TYK2 Enzyme IC50 1 mM ATP, averaged IC50 ranges. The gist of the method:
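IC50 values come from a 4-parameter logistic fit of percent-of-control data, with compounds at 2% final DMSO. Reactions held 1 nM His-tag-cleaved Tyk2 (aa 886–1187), 8 μM Omnia Y12 peptide and 1 mM ATP in pH 7.4 HEPES buffer with 10 mM MgCl2, Triton X-100 and DTT. Sox fluorescence (360/485 nm) was monitored kinetically over 45 min.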

The target in another experiment is JAK2 (Homo sapiens (Human), UniProt O60674). Put plainly: JAK2 Inhibition Assay (Example C, Omnia kinase fluorescence peptide substrate assay). The conditions noted are these: JAK2 Enzyme IC50 1 mM ATP, averaged IC50 ranges. The essentials:
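Kinetic fluorescence read of Omnia Y7 peptide (10 μM) phosphorylation, ex 360/em 485 nm every 50 s over 45 min, by 4 nM JAK2 at 1 mM ATP. Buffer 25 mM HEPES pH 7.4, 10 mM MgCl2, 0.01% Triton X-100, 1 mM DTT; final DMSO 2%. Percent-of-control values fitted by 4-parameter logistic for IC50.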

The target of a further experiment is JAK1 (Homo sapiens (Human), UniProt P23458). Put plainly: JAK1 Inhibition Assay (Example B, Omnia kinase fluorescence peptide substrate assay). The essentials:
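Kinetic fluorescence read (360 nm excitation, 485 nm emission, every 50 s over 45 min) of Omnia Y12 peptide (8 μM) phosphorylation by 12.5 nM human JAK1 at 1 mM ATP. Buffer: HEPES pH 7.4, MgCl2, Triton X-100, DTT; 2% DMSO. IC50 = concentration giving 50 POC on logistic curve.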

Where [1] appears, read: JAK1 Enzyme IC50 1 mM ATP, 1 mM ATP, averaged IC50 ranges.

Human Tyk2 kinase domain, sequence (P29597 886-1187): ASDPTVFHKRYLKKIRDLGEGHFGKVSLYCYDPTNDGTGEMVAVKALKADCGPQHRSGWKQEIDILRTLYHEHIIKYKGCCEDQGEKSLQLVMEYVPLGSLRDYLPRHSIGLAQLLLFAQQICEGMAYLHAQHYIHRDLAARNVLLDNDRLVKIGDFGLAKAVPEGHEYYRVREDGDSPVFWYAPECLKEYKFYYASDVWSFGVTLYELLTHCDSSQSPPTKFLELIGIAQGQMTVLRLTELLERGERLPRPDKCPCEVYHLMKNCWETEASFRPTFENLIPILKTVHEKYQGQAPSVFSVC
JAK1, sequence (P23458 whole entry): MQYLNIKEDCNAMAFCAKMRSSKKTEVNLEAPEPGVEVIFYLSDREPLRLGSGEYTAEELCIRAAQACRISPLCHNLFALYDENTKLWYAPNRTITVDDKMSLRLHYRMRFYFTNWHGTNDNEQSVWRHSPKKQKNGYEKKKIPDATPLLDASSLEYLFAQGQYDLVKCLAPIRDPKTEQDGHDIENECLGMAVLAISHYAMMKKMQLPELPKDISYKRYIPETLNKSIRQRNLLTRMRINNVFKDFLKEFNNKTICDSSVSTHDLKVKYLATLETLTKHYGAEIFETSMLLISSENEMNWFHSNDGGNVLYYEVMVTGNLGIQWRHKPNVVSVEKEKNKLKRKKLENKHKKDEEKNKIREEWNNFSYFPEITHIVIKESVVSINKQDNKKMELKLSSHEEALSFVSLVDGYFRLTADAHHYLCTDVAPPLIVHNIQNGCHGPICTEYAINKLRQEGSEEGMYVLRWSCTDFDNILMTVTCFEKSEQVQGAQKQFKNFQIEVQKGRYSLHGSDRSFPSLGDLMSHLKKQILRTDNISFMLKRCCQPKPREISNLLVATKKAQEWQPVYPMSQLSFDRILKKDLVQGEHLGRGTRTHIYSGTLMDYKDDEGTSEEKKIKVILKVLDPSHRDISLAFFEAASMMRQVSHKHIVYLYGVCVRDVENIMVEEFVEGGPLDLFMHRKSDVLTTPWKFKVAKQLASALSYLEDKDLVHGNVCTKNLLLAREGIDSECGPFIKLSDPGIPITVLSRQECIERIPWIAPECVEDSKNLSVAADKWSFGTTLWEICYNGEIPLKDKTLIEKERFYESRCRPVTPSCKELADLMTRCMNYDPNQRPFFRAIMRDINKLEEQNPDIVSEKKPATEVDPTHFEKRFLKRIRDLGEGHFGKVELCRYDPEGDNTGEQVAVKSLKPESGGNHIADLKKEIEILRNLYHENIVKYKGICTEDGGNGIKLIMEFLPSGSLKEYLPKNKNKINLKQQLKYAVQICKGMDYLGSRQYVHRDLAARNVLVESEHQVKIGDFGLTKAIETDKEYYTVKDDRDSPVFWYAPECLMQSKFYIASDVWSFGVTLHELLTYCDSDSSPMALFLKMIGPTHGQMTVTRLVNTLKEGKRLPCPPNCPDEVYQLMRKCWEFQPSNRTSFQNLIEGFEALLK
JAK3, sequence (P52333 whole entry): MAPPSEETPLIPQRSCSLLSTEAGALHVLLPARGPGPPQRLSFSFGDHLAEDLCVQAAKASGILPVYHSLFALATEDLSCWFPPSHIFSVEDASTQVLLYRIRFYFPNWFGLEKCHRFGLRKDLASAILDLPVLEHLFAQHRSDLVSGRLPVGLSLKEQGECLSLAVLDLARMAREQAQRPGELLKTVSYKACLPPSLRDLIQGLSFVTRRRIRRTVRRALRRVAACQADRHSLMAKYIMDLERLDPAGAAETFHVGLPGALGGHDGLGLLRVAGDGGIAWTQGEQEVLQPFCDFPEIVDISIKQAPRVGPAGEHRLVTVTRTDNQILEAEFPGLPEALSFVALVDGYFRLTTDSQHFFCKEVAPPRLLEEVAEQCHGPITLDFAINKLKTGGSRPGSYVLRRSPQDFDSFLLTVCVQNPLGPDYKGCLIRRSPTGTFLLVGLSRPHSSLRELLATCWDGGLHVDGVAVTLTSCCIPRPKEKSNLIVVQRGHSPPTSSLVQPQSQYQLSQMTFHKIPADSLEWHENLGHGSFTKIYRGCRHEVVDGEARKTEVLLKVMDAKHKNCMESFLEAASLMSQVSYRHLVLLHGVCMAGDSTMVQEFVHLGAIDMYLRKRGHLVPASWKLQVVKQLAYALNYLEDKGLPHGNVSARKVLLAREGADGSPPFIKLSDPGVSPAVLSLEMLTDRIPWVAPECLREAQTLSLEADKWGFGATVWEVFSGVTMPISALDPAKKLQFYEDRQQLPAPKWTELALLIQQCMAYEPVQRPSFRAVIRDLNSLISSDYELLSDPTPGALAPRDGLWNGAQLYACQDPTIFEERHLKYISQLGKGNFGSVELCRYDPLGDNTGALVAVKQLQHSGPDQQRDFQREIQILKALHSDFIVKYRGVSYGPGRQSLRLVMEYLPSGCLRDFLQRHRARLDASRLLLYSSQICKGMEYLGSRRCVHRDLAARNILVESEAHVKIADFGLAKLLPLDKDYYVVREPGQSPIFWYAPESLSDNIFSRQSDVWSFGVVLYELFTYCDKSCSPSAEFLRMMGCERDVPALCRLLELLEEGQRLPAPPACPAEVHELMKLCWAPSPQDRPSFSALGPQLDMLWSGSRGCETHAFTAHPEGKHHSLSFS
JAK2, sequence (O60674 whole entry): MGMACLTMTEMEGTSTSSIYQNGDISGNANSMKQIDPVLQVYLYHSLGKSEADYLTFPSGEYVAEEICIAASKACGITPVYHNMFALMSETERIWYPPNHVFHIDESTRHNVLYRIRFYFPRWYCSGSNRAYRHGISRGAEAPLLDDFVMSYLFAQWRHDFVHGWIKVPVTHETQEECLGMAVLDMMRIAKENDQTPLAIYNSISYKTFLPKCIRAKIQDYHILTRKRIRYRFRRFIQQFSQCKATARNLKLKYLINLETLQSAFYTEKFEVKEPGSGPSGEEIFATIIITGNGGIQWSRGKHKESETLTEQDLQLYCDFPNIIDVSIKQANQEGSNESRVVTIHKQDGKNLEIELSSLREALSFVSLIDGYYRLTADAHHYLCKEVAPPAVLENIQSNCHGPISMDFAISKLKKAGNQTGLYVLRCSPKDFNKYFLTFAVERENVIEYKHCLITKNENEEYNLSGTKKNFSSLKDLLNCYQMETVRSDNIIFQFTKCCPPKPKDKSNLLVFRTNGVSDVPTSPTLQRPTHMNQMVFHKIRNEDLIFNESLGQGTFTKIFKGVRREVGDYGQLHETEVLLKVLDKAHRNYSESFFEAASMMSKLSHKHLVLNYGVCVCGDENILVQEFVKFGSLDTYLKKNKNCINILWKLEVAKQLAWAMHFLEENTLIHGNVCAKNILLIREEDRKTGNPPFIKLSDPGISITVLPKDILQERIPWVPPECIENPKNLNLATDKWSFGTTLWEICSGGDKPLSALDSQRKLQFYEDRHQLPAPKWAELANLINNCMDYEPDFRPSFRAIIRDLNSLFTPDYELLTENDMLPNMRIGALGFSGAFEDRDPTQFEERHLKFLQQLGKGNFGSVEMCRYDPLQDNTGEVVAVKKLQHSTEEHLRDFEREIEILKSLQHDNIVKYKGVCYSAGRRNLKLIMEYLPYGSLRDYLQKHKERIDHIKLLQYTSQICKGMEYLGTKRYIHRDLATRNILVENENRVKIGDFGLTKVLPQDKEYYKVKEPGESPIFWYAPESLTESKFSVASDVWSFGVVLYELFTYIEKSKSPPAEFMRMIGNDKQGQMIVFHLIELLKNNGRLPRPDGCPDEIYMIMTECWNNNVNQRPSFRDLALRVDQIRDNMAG

The term IC50 denotes the concentration at which inhibition is half-maximal. As to `CCC(CC)n1cc(-c2nc(-c3cnn(CCN4CCC(CO)CC4)c3)cn3nccc23)cn1` [Example 146, (1-(2-(4-(4-(1-(pentan-3-yl)-1H-pyrazol-4-yl)pyrazolo[1,5-a]pyrazin-6-yl)-1H-pyrazol-1-yl)ethyl)piperidin-4-yl)methanol], the IC50 against JAK3 is 1 to 10 µM; against Human Tyk2 kinase domain, 0.01 to 0.1 µM; against JAK2, 0.01 to 0.1 µM; at JAK1, 1 to 10 µM.
As to `CCC(CC)n1cc(-c2nc(-c3cnn(CCN4CCNCC4=O)c3)cn3nccc23)cn1` [Example 147, 1-(2-(4-(4-(1-(pentan-3-yl)-1H-pyrazol-4-yl)pyrazolo[1,5-a]pyrazin-6-yl)-1H-pyrazol-1-yl)ethyl)piperazin-2-one], the IC50 on JAK3 is 1 to 10 µM; on Human Tyk2 kinase domain it was 0.01 to 0.1 µM; at JAK2, 0.01 to 0.1 µM; against JAK1 it was 1 to 10 µM.
Take `CCC(CC)n1cc(-c2nc(-c3cnn([C@H]4C[C@H](O)C4)c3)cn3nccc23)cn1` [Example 161, trans-3-(4-(4-(1-(pentan-3-yl)-1H-pyrazol-4-yl)pyrazolo[1,5-a]pyrazin-6-yl)-1H-pyrazol-1-yl)cyclobutanol]: the half-inhibitory concentration (IC50) on JAK3 is 1 to 10 µM; on Human Tyk2 kinase domain, 0.01 to 0.1 µM; against JAK2 it was 0.01 to 0.1 µM; against JAK1 (setting [1]) it was 0.1 to 1 µM.
As to `CCC(CC)n1cc(-c2nc(-c3cnn([C@H]4C[C@H](CO)C4)c3)cn3nccc23)cn1` [Example 165, (trans-3-(4-(4-(1-(pentan-3-yl)-1H-pyrazol-4-yl)pyrazolo[1,5-a]pyrazin-6-yl)-1H-pyrazol-1-yl)cyclobutyl)methanol], the IC50 against JAK3 was in the range of 1 to 10 µM; at Human Tyk2 kinase domain, 0.01 to 0.1 µM; on JAK2 it was 0.01 to 0.1 µM; at JAK1, 0.1 to 1 µM.
As to `CCC(CC)n1cc(-c2nc(-c3cnn([C@H]4C[C@H](C(N)=O)C4)c3)cn3nccc23)cn1` [Example 167, (1r,3r)-3-(4-(4-(1-(pentan-3-yl)-1H-pyrazol-4-yl)pyrazolo[1,5-a]pyrazin-6-yl)-1H-pyrazol-1-yl)cyclobutanecarboxamide], the IC50 lay within 1 to 10 µM against JAK3, 0.01 to 0.1 µM against Human Tyk2 kinase domain, 0.01 to 0.1 µM against JAK2 and 0.1 to 1 µM at JAK1.
Regarding `CCC(CC)n1cc(-c2nc(-c3cnn([C@H]4C[C@H](C(=O)N(C)C)C4)c3)cn3nccc23)cn1` [Example 169, (1r,3r)-N,N-dimethyl-3-(4-(4-(1-(pentan-3-yl)-1H-pyrazol-4-yl)pyrazolo[1,5-a]pyrazin-6-yl)-1H-pyrazol-1-yl)cyclobutanecarboxamide], the concentration for half-maximal inhibition (IC50) was 1 to 10 µM at JAK3, 0.1 to 1 µM on Human Tyk2 kinase domain, 0.1 to 1 µM against JAK2 and 1 to 10 µM against JAK1.
With `CCC(CC)n1cc(-c2nc(-c3cnn([C@H]4C[C@@H](C(=O)N(C)C)C4)c3)cn3nccc23)cn1` [Example 170, (1s,3s)-N,N-dimethyl-3-(4-(4-(1-(pentan-3-yl)-1H-pyrazol-4-yl)pyrazolo[1,5-a]pyrazin-6-yl)-1H-pyrazol-1-yl)cyclobutanecarboxamide], the half-maximal inhibitory concentration (IC50) was in the range of 1 to 10 µM against JAK3, 0.01 to 0.1 µM against Human Tyk2 kinase domain, 0.01 to 0.1 µM on JAK2 and 0.1 to 1 µM against JAK1.
Take `CCC(CC)n1cc(-c2nc(-c3cnn(C4CN(C(=O)[C@H](C)O)C4)c3)cn3nccc23)cn1` [Example 173, (S)-2-hydroxy-1-(3-(4-(4-(1-(pentan-3-yl)-1H-pyrazol-4-yl)pyrazolo[1,5-a]pyrazin-6-yl)-1H-pyrazol-1-yl)azetidin-1-yl)propan-1-one]: the half-maximal inhibitory concentration (IC50) at JAK3 lay in the range of 1 to 10 µM; against Human Tyk2 kinase domain it was 0.01 to 0.1 µM; at JAK2 it was 0.01 to 0.1 µM; at JAK1, 0.1 to 1 µM.
With `CCC(CC)n1cc(-c2nc(-c3cnn(C4CN(C(=O)[C@@H](C)O)C4)c3)cn3nccc23)cn1` [Example 175, (R)-2-hydroxy-1-(3-(4-(4-(1-(pentan-3-yl)-1H-pyrazol-4-yl)pyrazolo[1,5-a]pyrazin-6-yl)-1H-pyrazol-1-yl)azetidin-1-yl)propan-1-one], the IC50 lay within 1 to 10 µM at JAK3, 0.1 to 1 µM against Human Tyk2 kinase domain, 0.01 to 0.1 µM at JAK2 and 1 to 10 µM on JAK1.
With `CCC(CC)n1cc(-c2nc(-c3cnn(C4CN(C(=O)[C@H]5C[C@@H](O)C5)C4)c3)cn3nccc23)cn1` [Example 178, (cis-3-hydroxycyclobutyl)(3-(4-(4-(1-(pentan-3-yl)-1H-pyrazol-4-yl)pyrazolo[1,5-a]pyrazin-6-yl)-1H-pyrazol-1-yl)azetidin-1-yl)methanone], the concentration for half-maximal inhibition (IC50) against JAK3 lay within 1 to 10 µM; on Human Tyk2 kinase domain, 0.01 to 0.1 µM; at JAK2 it was 0.01 to 0.1 µM; on JAK1, 1 to 10 µM.
Turning to `CCC(CC)n1cc(-c2nc(-c3cnn(C4CN(C(=O)[C@H]5C[C@H](O)C5)C4)c3)cn3nccc23)cn1` [Example 179, (trans-3-hydroxycyclobutyl)(3-(4-(4-(1-(pentan-3-yl)-1H-pyrazol-4-yl)pyrazolo[1,5-a]pyrazin-6-yl)-1H-pyrazol-1-yl)azetidin-1-yl)methanone], the IC50 at JAK3 was in the range of 1 to 10 µM; at Human Tyk2 kinase domain it was 0.01 to 0.1 µM; at JAK2 it was 0.01 to 0.1 µM; against JAK1, 1 to 10 µM.
`CCC(CC)n1cc(-c2nc(-c3cnn(C4CN(C(=O)CN5CC(O)C5)C4)c3)cn3nccc23)cn1` [Example 180, 2-(3-hydroxyazetidin-1-yl)-1-(3-(4-(4-(1-(pentan-3-yl)-1H-pyrazol-4-yl)pyrazolo[1,5-a]pyrazin-6-yl)-1H-pyrazol-1-yl)azetidin-1-yl)ethanone]: the IC50 fell in the range of 1 to 10 µM against JAK3, 0.1 to 1 µM at Human Tyk2 kinase domain, 0.1 to 1 µM against JAK2 and 1 to 10 µM at JAK1 (setting [1]).
For the molecule `CCC(CC)n1cc(-c2nc(-c3cnn(C4CN(C(=O)CN5CCCC5)C4)c3)cn3nccc23)cn1` [Example 181, 1-(3-(4-(4-(1-(pentan-3-yl)-1H-pyrazol-4-yl)pyrazolo[1,5-a]pyrazin-6-yl)-1H-pyrazol-1-yl)azetidin-1-yl)-2-(pyrrolidin-1-yl)ethanone], the IC50 against JAK3 was in the range of 1 to 10 µM; against Human Tyk2 kinase domain, 0.01 to 0.1 µM; on JAK2 it was 0.01 to 0.1 µM; on JAK1 (setting [1]), 0.1 to 1 µM.
Consider `CCC(CC)n1cc(-c2nc(-c3cnn(C4CN(C(=O)C(=O)N(C)C)C4)c3)cn3nccc23)cn1` [Example 182, N,N-dimethyl-2-oxo-2-(3-(4-(4-(1-(pentan-3-yl)-1H-pyrazol-4-yl)pyrazolo[1,5-a]pyrazin-6-yl)-1H-pyrazol-1-yl)azetidin-1-yl)acetamide], for which the IC50 against JAK3 was 1 to 10 µM; at Human Tyk2 kinase domain, 0.01 to 0.1 µM; against JAK2 it was 0.01 to 0.1 µM; against JAK1, 0.1 to 1 µM.
With `CCC(CC)n1cc(-c2nc(-c3cnn(C[C@H](N)C(C)(C)O)c3)cn3nccc23)cn1` [Example 183, (S)-3-amino-2-methyl-4-(4-(4-(1-(pentan-3-yl)-1H-pyrazol-4-yl)pyrazolo[1,5-a]pyrazin-6-yl)-1H-pyrazol-1-yl)butan-2-ol], the IC50 lay within 1 to 10 µM on JAK3, 0.01 to 0.1 µM at Human Tyk2 kinase domain, 0.01 to 0.1 µM on JAK2 and 1 to 10 µM at JAK1.
For the molecule `CCC(CC)n1cc(-c2nc(-c3cnn(CC4(O)CCNCC4)c3)cn3nccc23)cn1` [Example 184, 4-((4-(4-(1-(pentan-3-yl)-1H-pyrazol-4-yl)pyrazolo[1,5-a]pyrazin-6-yl)-1H-pyrazol-1-yl)methyl)piperidin-4-ol], the half-maximal inhibitory concentration (IC50) at JAK3 fell in the range of 1 to 10 µM; on Human Tyk2 kinase domain it was 0.1 to 1 µM; against JAK2, 0.1 to 1 µM; at JAK1 (setting [1]) it was 1 to 10 µM.
As to `CCC(CC)n1cc(-c2nc(-c3cnn(CC4(O)CCN(C(C)=O)CC4)c3)cn3nccc23)cn1` [Example 185, 1-(4-hydroxy-4-((4-(4-(1-(pentan-3-yl)-1H-pyrazol-4-yl)pyrazolo[1,5-a]pyrazin-6-yl)-1H-pyrazol-1-yl)methyl)piperidin-1-yl)ethanone], the IC50 lay in the range of 1 to 10 µM on JAK3, 0.1 to 1 µM at Human Tyk2 kinase domain, 0.1 to 1 µM at JAK2 and 0.1 to 1 µM at JAK1.
With `CCC(CC)n1cc(-c2nc(-c3cnn(C4CN(C(=O)CN)C4)c3)cn3nccc23)cn1` [Example 186, 2-amino-1-(3-(4-(4-(1-(pentan-3-yl)-1H-pyrazol-4-yl)pyrazolo[1,5-a]pyrazin-6-yl)-1H-pyrazol-1-yl)azetidin-1-yl)ethanone], the half-inhibitory concentration (IC50) at JAK3 lay in the range of 1 to 10 µM; against Human Tyk2 kinase domain, 0.01 to 0.1 µM; on JAK2, 0.01 to 0.1 µM; at JAK1, 1 to 10 µM.
Regarding `CCC(CC)n1cc(-c2nc(-c3cnn(C4CN(C(=O)CNC)C4)c3)cn3nccc23)cn1` [Example 187, 2-(methylamino)-1-(3-(4-(4-(1-(pentan-3-yl)-1H-pyrazol-4-yl)pyrazolo[1,5-a]pyrazin-6-yl)-1H-pyrazol-1-yl)azetidin-1-yl)ethanone bis(2,2,2-trifluoroacetate)], the IC50 was 1 to 10 µM on JAK3, 0.01 to 0.1 µM against Human Tyk2 kinase domain, 0.01 to 0.1 µM against JAK2 and 0.1 to 1 µM on JAK1.
